In patent US9782406B2, “Kinase inhibitor and method for treatment of related diseases” (PEKING UNIVERSITY SHENZHEN GRADUATE SCHOOL, priority 2011, dated 2017):
pIC50: −log10 of the molar value.

Biological target: Btk (Homo sapiens, UniProt Q06187)
Assay: Btk in vitro inhibitory activity, acellular TR-FRET kinase assay; further: 1 µM peptide substrate
Type: biochemical
Settings: read-out: Btk IC50 (Efficacy)
Method: Btk kinase activity was determined using a time-resolved fluorescence resonance energy transfer (TR-FRET) methodology. Measurements were performed in a reaction volume of 50 μL using 96-well assay plates. […] The TR-FRET signal was measured on a multimode plate reader with an excitation wavelength (λEx) of 330 nm and detection wavelengths (λEm) of 615 and 665 nm. Activity was determined by the ratio of the fluorescence at 665 nm to that at 615 nm. For each compound, enzyme activity was measured at various concentrations of compound. Negative control reactions were performed in the absence of inhibitor in replicates of six, and two no-enzyme controls were used to determine baseline fluorescence levels. IC50s were obtained using the program Batch Ki (Kuzmic et al. (2000), Anal. Biochem. 286:45-50).

Chain of Btk (Q06187 whole entry): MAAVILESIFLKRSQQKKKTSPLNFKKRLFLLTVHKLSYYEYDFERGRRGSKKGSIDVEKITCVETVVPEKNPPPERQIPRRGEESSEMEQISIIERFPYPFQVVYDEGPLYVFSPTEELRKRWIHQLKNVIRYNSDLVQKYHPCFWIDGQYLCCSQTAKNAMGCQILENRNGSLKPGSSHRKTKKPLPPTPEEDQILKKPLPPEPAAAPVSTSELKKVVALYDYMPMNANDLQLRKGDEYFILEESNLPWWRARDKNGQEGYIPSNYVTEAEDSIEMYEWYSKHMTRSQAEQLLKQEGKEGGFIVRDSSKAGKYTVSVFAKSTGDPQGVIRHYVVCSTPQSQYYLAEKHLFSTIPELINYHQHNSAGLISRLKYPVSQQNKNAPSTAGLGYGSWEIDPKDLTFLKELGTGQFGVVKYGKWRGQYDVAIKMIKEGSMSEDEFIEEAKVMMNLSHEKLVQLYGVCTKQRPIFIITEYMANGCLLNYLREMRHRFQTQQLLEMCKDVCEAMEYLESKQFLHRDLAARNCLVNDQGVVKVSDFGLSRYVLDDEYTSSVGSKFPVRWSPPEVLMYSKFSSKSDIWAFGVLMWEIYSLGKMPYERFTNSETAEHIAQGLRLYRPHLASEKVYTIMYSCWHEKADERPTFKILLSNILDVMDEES

pIC50	Compound
> 7.00	C=CC(=O)Nc1cccc(Nc2ncc(NC(=O)c3cc(NC(=O)c4cccc(F)c4)ccc3C)cn2)c1 [Example 16]
> 7.00	Cc1ccc(NC(=O)c2cccc(C(F)(F)F)c2)cc1C(=O)Nc1cnc(Nc2cccc(N)c2)nc1 [Example 20]
> 7.00	Cc1ccc(NC(=O)c2ccc3c(c2)OC(F)(F)O3)cc1C(=O)Nc1cnc(Nc2cccc(N)c2)nc1 [Example 25]
> 7.00	Nc1cccc(Nc2ncc(NC(=O)c3cc(NC(=O)c4cccc(C(F)(F)F)c4)ccc3F)cn2)c1 [Example 34]
> 7.00	C=CC(=O)Nc1cccc(Nc2ncc(NC(=O)c3cc(NC(=O)c4cccc(Cl)c4)ccc3C)cn2)c1 [Example 15]
> 7.00	Cc1ccc(NC(=O)c2ccc(C(F)(F)F)cc2)cc1C(=O)Nc1cnc(Nc2cccc(N)c2)nc1 [Example 26]
6.00 to 7.00	Cc1ccc(NC(=O)c2cccc(F)c2)cc1C(=O)Nc1cnc(Nc2cccc(N)c2)nc1 [Example 28]
> 7.00	Cc1ccc(NC(=O)c2cc(Cl)cc(C(F)(F)F)c2)cc1C(=O)Nc1cnc(Nc2cccc(N)c2)nc1 [Example 21]
> 7.00	COc1cc(OC)cc(C(=O)Nc2ccc(C)c(C(=O)Nc3cnc(Nc4cccc(N)c4)nc3)c2)c1 [Example 24]
> 7.00	Nc1cccc(Nc2ncc(NC(=O)c3cc(NC(=O)c4cccc(C(F)(F)F)c4)ccc3Cl)cn2)c1 [Example 33]
> 7.00	Cc1ccc(NC(=O)Nc2cccc(C(F)(F)F)c2)cc1C(=O)Nc1cnc(Nc2cccc(N)c2)nc1 [Example 35]
> 7.00	Cc1ccc(NC(=O)c2cccc(N(C)C)c2)cc1C(=O)Nc1cnc(Nc2cccc(N)c2)nc1 [Example 30]
> 7.00	Cc1ccc(NC(=O)c2cccc(Cl)c2)cc1C(=O)Nc1cnc(Nc2cccc(N)c2)nc1 [Example 27]
> 7.00	Cc1ccc(NC(=O)c2ccc3ccccc3c2)cc1C(=O)Nc1cnc(Nc2cccc(N)c2)nc1 [Example 23]

Further lines, the molecule ahead of its results:

Compound	pIC50
Cc1ccc(NC(=O)C2CC2)cc1C(=O)Nc1cnc(Nc2cccc(N)c2)nc1 [Example 31]	5.00 to 6.00
C=CC(=O)Nc1cccc(Nc2ncc(NC(=O)c3cc(NC(=O)c4cc(OC)cc(OC)c4)ccc3C)cn2)c1 [Example 12]	> 7.00
C=CC(=O)Nc1cccc(Nc2ncc(NC(=O)c3cc(NC(=O)c4ccc(C(F)(F)F)cc4)ccc3C)cn2)c1 [Example 14]	> 7.00
C=CC(=O)N(C(=O)C=C)c1cccc(Nc2ncc(NC(=O)c3cc(NC(=O)c4cccc(C(F)(F)F)c4)ccc3C)cn2)c1 [Example 5]	6.00 to 7.00
Nc1cccc(Nc2ncc(NC(=O)c3cccc(NC(=O)c4cccc(C(F)(F)F)c4)c3)cn2)c1 [Example 32]	6.00 to 7.00
C=CC(=O)Nc1cccc(Nc2ncc(NC(=O)c3cc(NC(=O)c4cnoc4C)ccc3C)cn2)c1 [Example 17]	6.00 to 7.00
CCC(=O)Nc1ccc(C)c(C(=O)Nc2cnc(Nc3cccc(N)c3)nc2)c1 [Example 22]	5.00 to 6.00
C=CC(=O)Nc1cccc(Nc2ncc(NC(=O)c3cc(NC(=O)c4ccc5c(c4)OC(F)(F)O5)ccc3C)cn2)c1 [Example 13]	> 7.00
C=CC(=O)NCC(=O)Nc1cccc(Nc2ncc(NC(=O)c3cc(NC(=O)c4cccc(C(F)(F)F)c4)ccc3C)cn2)c1 [Example 4]	> 7.00
Cc1ccc(NC(=O)/C=C/c2ccccc2)cc1C(=O)Nc1cnc(Nc2cccc(N)c2)nc1 [Example 37]	6.00 to 7.00
C=CC(=O)Nc1cccc(Nc2ncc(NC(=O)c3cccc(NC(=O)c4cccc(C(F)(F)F)c4)c3)cn2)c1 [Example 8]	> 7.00
C=CC(=O)Nc1cccc(Nc2ncc(NC(=O)c3cc(NC(=O)c4cccc(C(F)(F)F)c4)ccc3F)cn2)c1 [Example 7]	> 7.00
C=CS(=O)(=O)Nc1cccc(Nc2ncc(NC(=O)c3cc(NC(=O)c4cccc(C(F)(F)F)c4)ccc3C)cn2)c1 [Example 3]	> 7.00
C=CC(=O)Nc1cccc(Nc2ncc(NC(=O)c3ccccc3C)cn2)c1 [Example 9]	> 7.00
C=CC(=O)Nc1cccc(Nc2ncc(NC(=O)c3cc(NC(=O)c4cccc(C(F)(F)F)c4)ccc3Cl)cn2)c1 [Example 6]	> 7.00
C=CC(=O)Nc1cccc(Nc2ncc(NC(=O)c3cc(NC(=O)CC)ccc3C)cn2)c1 [Example 10]	6.00 to 7.00
C/C=C/C(=O)Nc1cccc(Nc2ncc(NC(=O)c3cc(NC(=O)c4cccc(C(F)(F)F)c4)ccc3C)cn2)c1 [Example 2]	> 7.00
Cc1ccc(NC(=O)c2cnoc2C)cc1C(=O)Nc1cnc(Nc2cccc(N)c2)nc1 [Example 29]	6.00 to 7.00
C=CC(=O)Nc1cccc(Nc2ncc(NC(=O)c3cc(NC(=O)c4cccc(N(C)C)c4)ccc3C)cn2)c1 [Example 18]	> 7.00
C=CC(=O)Nc1cccc(Nc2ncc(NC(=O)c3cc(NC(=O)c4ccc5ccccc5c4)ccc3C)cn2)c1 [Example 11]	> 7.00
C=CC(=O)Nc1cccc(Nc2ncc(NC(=O)c3cc(NC(=O)C4CC4)ccc3C)cn2)c1 [Example 19]	6.00 to 7.00

Tested on: rat basophilic leukemia cells (RBL-2H3)
Assay: not given
Settings: mast cells treated with Btk inhibitor; cited from earlier work

Compound	release of histamine reduced
C/C(O)=C(\C#N)C(=O)Nc1cc(Br)ccc1Br [LFM-A13]	20-25%
